Results from patent publication US11492347B2 (ENYO PHARMA, priority 2018, dated 2022).

Experiments:
[1] = test system: NFκB; test: NFκB reporter assay, TNFα stimulation of A549 NFκB-NanoLuciferase reporter cells; assay type: cell-based; conditions: Homo sapiens, 4 ng/ml TNFα, NanoGlo luciferase assay 6 hours later
Excerpt: Compounds of the present invention have been tested for their capacity to inhibit NFκB.
The NFκB reporter construct was made by cloning 5 NFκB responsive elements upstream of a NanoLuciferase reporter gene flanked by AAVS1 genomic sequences.
NFκB Responsive element fused with NanoLuciferase and SV40 late Poly(A) signal was amplified from pNL3.2-NFκB-Nluc (Promega) using NFKB-NLUC-F and NFKB-NLUC-R primers and inserted by Infusion (TaKaRa) in AAVS1 SA-2A-puro-pA donor plasmid (Hockemeyer et al, Nat Biotechnol. 2009, 27, 851-7) digested by Sal1. pCRISPR AAVS1-T2 expressing a guide RNA (gRNA) to target human AAVS1 (T2 target sequence) was constructed by inserting AAVS1-T2A hybridized primers in pLentiCRISPR v2-blast (Sanjana et al, Nat Methods. 2014, 11, 783-4) digested by Bsmbl.
A549 cells were transfected by the plasmids and puromycine selected for 5 days (1 μg mL-1). Then clones were obtained by limiting dilution and selected to maximize TNF dependent NFκB-NanoLuciferase induction.
The reporter cells were seeded on a 96-well plate for overnight with DMEM including 10% FBS. Test compounds were added at varying concentrations. The cells then were treated with 4 ng/ml TNFα (Peprotech, ref E251) in DMEM+10% FBS. NanoGlo luciferase assay (Promega) was carried out 6 hours later. Luminescence was measured using a Spark 20M spectrofluorimeter (Tecan). Values were normalized to the luminescence measured in untreated cells.

[2] = test system: H1N1 (influenza A/New Caledonia/20/99); test: microbe, parasite or virus in culture; assay type: cell-based; conditions: H1N1, A549, 48 h
[3] = target: T1, CISD2 Gene Product (NAF-1) (Homo sapiens, UniProt Q8N5K1); test: Stability of Fe-S cluster binding of purified NEET protein (absorbance 458 nm); assay type: biochemical; conditions: for Time (in minutes) to achieve 50% loss of bound cluster (Absorbance 458 nm) / Residual cluster bound at end of experiment (Percentage Absorbance 458 nm at time zero): NAF-1 20 μM, compound 60 μM; for Time (in minutes) to achieve 50% loss of bound cluster (Absorbance 458 nm): pH 6, 37° C., run time 500 minutes, vehicle control 310 or 210; for Residual cluster bound at end of experiment (Percentage Absorbance 458 nm at time zero): pH 6, at 500 minutes, vehicle control 3%; for Stabiliser or destabiliser of Fe-S cluster binding by CISD2 Gene Product (NAF-1): time to 50% cluster loss changed by more than 25% compared to the Control sample, at the concentrations tested
T1 sequence (Q8N5K1 57-135 limits assumed): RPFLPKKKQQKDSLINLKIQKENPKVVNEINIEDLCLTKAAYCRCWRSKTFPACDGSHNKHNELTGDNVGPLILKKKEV
Experimental: (§1) The modulator effect on the NEET proteins encoded by human CISD1, CISD2, and CISD3 genes by the compounds of the invention has been tested and is reported below. Particularly, the biochemical function of the NEET proteins is measured by the stability of Fe—S cluster binding of the purified NEET proteins.
(§2) The Fe—S cluster binding capacity of NEET proteins is known to be coordinated by four amino-acids in a stretch of 16 (three Cysteine and one Histidine). As the lability of the Fe—S cluster of NEET proteins is sensitive to the environment, cluster stability measurements are one of the measures of interactions of NEET proteins with small molecules and compounds. NEET protein/2Fe-2S cluster stability can be assessed by monitoring the decay in absorbance of its characteristic 458-nm peak (characteristic of the oxidized 2Fe-2S cluster) over time. Each NEET protein (mitoNEET, NAF-1 and Miner 2) was tested for its Fe—S binding in the absence or presence of a compound according to the invention (see table 4 below). The rate of cluster release (time in minutes to achieve 50% loss of bound Fe—S cluster) was compared for each NEET protein in the presence of one of the compounds of the invention (in a 1:3 protein:compound molar ratio) relative to each protein alone.
(§3) At pH 6, all the three NEET proteins (mitoNEET, NAF-1 and Miner 2) have a characteristic rate of loss of the bound Fe—S cluster that can be measured by the decrease of absorbance at wavelength 458 nm over time, using a spectrophotometer. Thus, Bis-Tris buffer (100 mM Bis-Tris pH6, 100 mM Nacl) was used at pH 6 to dilute either DMSO (Blank sample: Bis-Tris Buffer pH 6, 66 μM DMSO), DMSO and one of the three NEET proteins (Control sample: Bis-Tris Buffer pH 6, 66 μM DMSO, 20 μM purified NEET protein) or DMSO, one of the three NEET proteins and a compound of the invention (Test sample: Bis-Tris Buffer pH 6, 66 μM DMSO, 20 μM purified NEET protein, 60 μM compound of the invention).
(§4) A reaction mix containing DMSO diluted in the Bis-Tris Buffer with or without a compound of the invention was prepared. The purified NEET protein was the last component added to the reaction mix which was then aliquoted into 4 replicates in 96 wells plates. The absorbance at wavelength 458 nm was taken at 5 minutes intervals at 37° C. with a spectrofluorimeter. The assay run time for CISD2 gene product (NAF-1) was 500 minutes and 180 minutes for both the CISD1gene product (mitoNEET) and the CISD3 gene product (Miner2).
(§5) In addition to time monitoring, residual bound Fe—S cluster to NEET protein was measured at the final point of the spectrometry assay for each Test sample and compared to the Control sample data (in parenthesis table 4). This residual binding is measured by the differential percentage between the absorbance 458 nm at time zero and the absorbance 458 nm at the end of the experiment (i.e. respectively 500 or 180 minutes as described here above), showing the percentage of NEET protein still able to bind a Fe—S cluster.
(§6) Analysis of the absorbance enables the time for which 50% loss of bound Fe—S cluster is reached (i.e. a 50% absorbance decrease at 458 nm) for each Test sample and each Control sample (in parenthesis table 4) to be determined. The data are then compared to determine whether the compound of the invention stabilizes or destabilizes the NEET protein/Fe—S cluster binding.

[4] = target: T2, CISD1 Gene Product (mitoNEET) (Homo sapiens, UniProt Q9NZ45); test: as above; assay type: biochemical; conditions: for Residual cluster bound at end of experiment (Percentage Absorbance 458 nm at time zero): pH 6, at 180 minutes, vehicle control 16%
T2 sequence (Q9NZ45 33-108 limits assumed): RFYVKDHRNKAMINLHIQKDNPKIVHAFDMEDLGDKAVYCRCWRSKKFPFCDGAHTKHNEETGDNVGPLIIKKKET
Experimental: as §1, §2, §3, §4, §5, §6

[5] = target: T3, CISD3 Gene Product (Miner2) (Homo sapiens, UniProt P0C7P0); test: as above; assay type: biochemical; conditions: for Residual cluster bound at end of experiment (Percentage Absorbance 458 nm at time zero): CISD3 gene product 20 μM, compound 60 μM, pH 6, at 180 minutes, vehicle control 11%; for Stabiliser or destabiliser of Fe-S cluster binding by CISD3 Gene Product (Miner2): time to 50% cluster loss changed by more than 25% compared to the Control sample, at the concentrations tested
T3 sequence (P0C7P0 15-127): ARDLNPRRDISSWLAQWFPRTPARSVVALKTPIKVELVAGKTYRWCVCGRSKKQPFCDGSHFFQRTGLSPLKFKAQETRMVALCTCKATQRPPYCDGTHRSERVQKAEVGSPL
Experimental: as §1, §2, §3, §4, §5, §6

Structure (SMILES) | EC50 [1] [nM] | IC50 [2] [nM] | Time (in minutes) to achieve 50% loss of bound cluster (Absorbance 458 nm) [3] | Residual cluster bound at end of experiment (Percentage Absorbance 458 nm at time zero) [3] | Stabiliser or destabiliser of Fe-S cluster binding by CISD2 Gene Product (NAF-1) [3] | Time (in minutes) to achieve 50% loss of bound cluster (Absorbance 458 nm) ([4]; mitoNEET 20 μM, compound 60 μM, pH 6, 37° C., run time 180 minutes, vehicle control 80) | Residual cluster bound at end of experiment (Percentage Absorbance 458 nm at time zero) ([4]; mitoNEET 20 μM, compound 60 μM) | Residual cluster bound at end of experiment (Percentage Absorbance 458 nm at time zero) [5] | Stabiliser or destabiliser of Fe-S cluster binding by CISD3 Gene Product (Miner2) [5] | Stabiliser or destabiliser of Fe-S cluster binding by CISD1 Gene Product (mitoNEET) ([4]; time to 50% cluster loss changed by more than 25% compared to the Control sample, at the concentrations tested)
CC1(C)Cc2c(sc(NC(=O)c3ccc(NCC4CCOCC4)cc3)c2C(=O)O)C(C)(C)C1 [Compound #132, 5,5,7,7-Tetramethyl-2-[[4-(tetrahydropyran-4-ylmethylamino)benzoyl]amino]-4,6-dihydrobenzothiophene-3-carboxylic acid] | 40 | 1.7 | 210 (310) minutes | 19% (3%) | destabilisers | 90 (80) minutes | 19% (16%) | 50% (11%) | Stabilisers | –
CC1(C)Cc2c(sc(NC(=O)c3ccccc3)c2C(=O)O)C(C)(C)C1 [Compound #33, 2-Benzamido-5,5,7,7-tetramethyl-4,6-dihydrobenzothiophene-3-carboxylic acid] | 400 | 34.6 | – | – | – | – | – | – | – | –
CC1(C)CCc2c(sc(NC(=O)c3ccccc3)c2C(=O)O)C1 [Compound #15, 2-Benzamido-6,6-dimethyl-5,7-dihydro-4H-benzothiophene-3-carboxylic acid] | 150 | 60 | – | – | – | – | – | – | – | –
CC1(C)CCc2sc(NC(=O)c3ccc(NC4CCOCC4)cc3)c(C(=O)O)c21 [Compound #62, 4,4-Dimethyl-2-[[4-(tetrahydropyran-4-ylamino)benzoyl]amino]-5,6-dihydrocyclopenta[b]thiophene-3-carboxylic acid] | 380 | 50 | – | – | – | – | – | – | – | –
COc1ccc(C(=O)Nc2sc3c(c2C(=O)O)CCC(C)(C)C3)c(F)c1 [Compound #16, 2-[(2-Fluoro-4-methoxybenzoyl)amino]-6,6-dimethyl-5,7-dihydro-4H-benzothiophene-3-carboxylic acid] | 150 | 43.8 | – | – | – | – | – | – | – | –
CC1(C)CCc2sc(NC(=O)c3ccc(NCC4CCOCC4)cc3)c(C(=O)O)c2C1 [#164, 5,5-Dimethyl-2-[[4-(tetrahydropyran-4-ylmethylamino)benzoyl]amino]-6,7-dihydro-4H-benzothiophene-3-carboxylic acid] | 90 | 16 | – | – | – | – | – | – | – | –
CC1(C)Cc2c(sc(NC(=O)c3ccc(Br)cc3)c2C(=O)O)C(C)(C)C1 [Compound #138, 2-[(4-Bromobenzoyl)amino]-5,5,7,7-tetramethyl-4,6-dihydrobenzothiophene-3-carboxylic acid] | – | 8.8 | 435 (210) minutes | 30% (3%) | Stabilisers | – | 53% (16%) | 66% (11%) | Stabilisers | stabilisers
